Measurements as given in patent US20140005163A1 (NOVARTIS AG, priority 2010, published 2014).
Converted amounts (≈) assume the structure as drawn.

How the values were obtained:
[1] = test system: PKB Ser473 phosphorylation in Rat1-myr-HA-p110 delta cells; test: Reverse protein array assay, PKB Ser473 phosphorylation in Rat1-myr-p110 delta cells; type: cell-based; conditions: read-out: p-PKB IC50
How it was run: (§1)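 Cells: Rat1-myr-HA-p110 alpha/beta/delta, seeded ≥20 h. Lysis on ice 10 min; reverse-phase protein array, 4 lysate dilutions; fluorescence read, relative intensity.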

PI3K alpha = target: T1, PI3K alpha (Homo sapiens, UniProt P42336); test: PI3K alpha kinase assay (Kinase-Glo luminescence); type: biochemical
T1 construct: p85(iSH2) fusion partner (see partner chain) (N); His tag (C); made in house; host or cells: baculovirus; Tn5 (Trichoplusia ni) or TiniPro insect cells
How it was run: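 Luminescent ATP-depletion assay (Kinase-Glo) with 10 nM PI3Kα and 10 μg/mL phosphatidylinositol as lipid substrate at 1 μM ATP. Incubation lasts 60 min at room temperature.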

mTOR = target: T2, mTOR (Homo sapiens, UniProt P42345); test: Biochemical assay for m-TOR by TR-FRET; conditions: 8 μM ATP, 400 nM GFP-4EBP1, 0.5 nM mTOR
T2 construct: purchased Invitrogen Corporation (Carlsbad/CA, USA) PV4753
How it was run: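 mTOR (0.5 nM final) phosphorylated GFP-4EBP1 (400 nM final) with ATP (8 μM final) at rt in 50 mM HEPES pH 7.5, 10 mM MnCl2, 50 mM NaCl, 1 mM EGTA, 1 mM DTT. EDTA stop with Tb3+-anti-p4EBP1 [pThr46] antibody (0.5 nM); TR-FRET read 15 min later.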

PI3K delta = target: T3, PI3K delta (Homo sapiens, UniProt O00329); test: PI3K delta kinase assay (Kinase-Glo luminescence); type: biochemical
T3 construct: for the full-length p110-d subunit are generated and fused by overlapping PCR; p85(iSH2) fusion partner (see partner chain) (N); His tag (C); made in house; host or cells: baculovirus; Tn5 (Trichoplusia ni) or TiniPro insect cells
How it was run: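 Inhibition is derived from luminescent detection of unconsumed ATP. The reaction runs for one hour at ambient temperature and contains the δ isoform fusion protein, phosphatidylinositol substrate and low (1 μM) ATP. Eight compound concentrations are tested in single, and a 4-parameter logistic model is used to calculate IC50.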

PI3K gamma = target: T4, PI3K gamma (Homo sapiens, UniProt P48736); test: PI3K gamma kinase assay (Kinase-Glo luminescence); type: biochemical
T4 construct: His tag (C); made in house; host or cells: baculovirus (pVL1393); Tn5 or TiniPro insect cells; construct from Roger Williams lab, MRC LMB
Description: (§2) In a more preferred assay, the kinase reaction is performed in a final volume of 10 μL per well of a low volume non binding CORNING, 384 well black plate (Cat. No. #3676). The final concentrations of ATP and phosphatidyl inositol (PI) in the assay are 1 μM and 10 μg/mL respectively. The reaction is started by the addition of ATP.
(§3) The components of the assay are added per well as follows:
(§4) […] in 90% DMSO per well, in columns 1-20, 8 concentrations (1/3 and 1/3.33 serial dilution step) in single. • Low control: […] of 90% DMSO in half the wells of columns 23-24 (0.45% in final). • High control: […] of reference compound (e.g. compound of Example 7 in WO 2006/122806) in the other half of columns 23-24 (2.5 μM in final). • Standard: […] of reference compound as just mentioned diluted as the test compounds in columns 21-22 • 20 mL ‘buffer’ are prepared per assay: • 200 μL of 1M TRIS HCl pH7.5 (10 mM in final) • 60 μL of 1M MgCl2 (3 mM in final) • 500 μL of 2M NaCl (50 mM in final) • 100 μL of 10% CHAPS (0.05% in final) • 200 μL of 100 mM DTT (1 mM in final) • 18.94 mL of nanopure water • 10 mL ‘PI’ are prepared per assay: • 200 μL of 1 mg/ml L-alpha-Phosphatidylinositol (Liver Bovine, Avanti Polar Lipids Cat. No. 840042C MW=909.12) prepared in 3% OctylGlucoside (10 μg/ml in final) • 9.8 mL of ‘buffer’ • 10 mL ‘ATP’ are prepared per assay: • 6.7 μL of 3 mM stock of ATP giving a final concentration of 1 μM per well • 10 mL of ‘buffer’ • 2.5 mL of each PI3K construct are prepared per assay in ‘PI’ with the following final concentration: • 10 nM PI3K alfa EMV B1075 • 25 nM beta EMV BV949 • 10 nM delta EMV BV1060 • 150 nM gamma EMV BV950 • 5 μL of ‘PI/PI3K’ are added per well. • 5 μl ‘ATP’ are added per well to start the reaction. • The plates are then incubated at room temperature for 60 minutes (alfa, beta, delta) or 120 minutes (gamma). • The reaction is terminated by the addition of 10 μL Kinase-Glo (Promega Cat. No. #6714). • The assay plates are read after 10 minutes in Synergy 2 reader (BioTek, Vermont USA) with an integration time of 100 milliseconds and sensitivity set to 191. • Output: The High control is around 60'000 counts and the Low control is 30'000 or lower • This luminescence assay gives a useful Z′ ratio between 0.4 and 0.7
(§5) IC50 is determined by a four parameter curve fitting routine that comes along with “excel fit”. […] Alternatively, IC50 values are calculated using idbsXLfit model 204, which is a 4 parameter logistic model.

[2] = test system: PKB Ser473 phosphorylation in Rat1-myr-HA-p110 beta cells; test: Reverse protein array assay, PKB Ser473 phosphorylation in Rat1-myr-p110 beta cells; type: cell-based; conditions: 0.5 h, pAkt Ser473, 30 minutes incubation, read-out: p-PKB IC50
How it was run: as §1

PI3K beta = target: T5, PI3K beta (Homo sapiens, UniProt P42338); test: PI3K beta kinase assay (Kinase-Glo luminescence); type: biochemical
T5 construct: for the full-length p110-b subunit are generated and fused by overlapping PCR; p85(iSH2) fusion partner (see partner chain) (N); His tag (C); made in house; host or cells: baculovirus; Tn5 (Trichoplusia ni) or TiniPro insect cells
Description: as §2, §3, §4
PI3Kβ BV-949 p85(iSH2)-Gly Linker-p110b(Full-Length)-C-Term his Tag
as §5

[3] = test system: PKB Ser473 phosphorylation in Rat1-myr-HA-p110 alpha cells; test: Reverse protein array assay, PKB Ser473 phosphorylation in Rat1-myr-p110 alpha cells; type: cell-based; conditions: 0.5 h, pAkt Ser473, 30 minutes compound incubation, read-out: p-PKB IC50
How it was run: as §1

Solubility at pH 6.8 = type: physicochemical; conditions: pH 6.8, aqueous buffer, thermodynamic from solid; read-out: solubility
Source text: The physicochemical properties of relevance for the absorption of the compound, such as the solubility and the membrane permeability, especially at a pH close to neutral pH can be measured using the procedure as described by L. ZHOU et al. in JOURNAL OF PHARMACEUTICAL SCIENCES, VOL. 96, NO. 11, p. 3052-3071 (2007) for the solubility at pH 6.8 and the procedure as described by F. Wohnsland and B. Faller in Journal of Medicinal Chemistry Vol 44, p. 923-930 (2001) for the Parallel Artificial Membrane Permeability Assay (PAMPA) at pH 6.8.

T2 sequence (P42345 1360-2549 limits assumed): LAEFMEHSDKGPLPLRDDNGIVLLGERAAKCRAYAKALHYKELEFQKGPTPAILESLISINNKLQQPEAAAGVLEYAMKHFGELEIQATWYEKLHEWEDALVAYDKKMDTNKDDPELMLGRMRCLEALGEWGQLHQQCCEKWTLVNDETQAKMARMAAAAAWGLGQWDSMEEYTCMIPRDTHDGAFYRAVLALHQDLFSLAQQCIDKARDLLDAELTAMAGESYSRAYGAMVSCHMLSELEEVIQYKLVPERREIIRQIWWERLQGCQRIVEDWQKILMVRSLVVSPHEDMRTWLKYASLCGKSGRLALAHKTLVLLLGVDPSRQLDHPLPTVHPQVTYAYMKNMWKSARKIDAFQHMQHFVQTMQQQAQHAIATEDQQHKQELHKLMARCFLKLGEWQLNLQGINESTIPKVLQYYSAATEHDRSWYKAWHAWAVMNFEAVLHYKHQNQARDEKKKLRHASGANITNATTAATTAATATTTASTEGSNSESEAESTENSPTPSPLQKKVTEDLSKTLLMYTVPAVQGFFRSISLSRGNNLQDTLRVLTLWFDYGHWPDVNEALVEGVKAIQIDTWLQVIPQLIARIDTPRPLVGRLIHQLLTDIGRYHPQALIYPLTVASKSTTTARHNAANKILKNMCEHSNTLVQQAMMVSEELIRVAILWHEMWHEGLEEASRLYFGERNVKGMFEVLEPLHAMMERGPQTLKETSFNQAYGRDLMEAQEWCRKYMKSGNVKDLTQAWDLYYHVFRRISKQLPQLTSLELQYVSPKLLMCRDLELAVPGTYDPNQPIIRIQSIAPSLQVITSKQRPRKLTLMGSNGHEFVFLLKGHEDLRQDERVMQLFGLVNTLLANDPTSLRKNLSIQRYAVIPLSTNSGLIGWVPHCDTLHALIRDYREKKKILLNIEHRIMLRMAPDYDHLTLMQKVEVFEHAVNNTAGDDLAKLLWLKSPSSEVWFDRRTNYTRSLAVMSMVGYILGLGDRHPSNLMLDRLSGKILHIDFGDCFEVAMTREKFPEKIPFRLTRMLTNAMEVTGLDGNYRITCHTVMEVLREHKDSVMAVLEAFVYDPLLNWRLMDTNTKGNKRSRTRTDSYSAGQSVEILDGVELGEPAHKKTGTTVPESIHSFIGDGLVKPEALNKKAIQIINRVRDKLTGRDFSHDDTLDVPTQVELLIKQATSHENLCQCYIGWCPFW
T5 sequence (P42338 with tags, fused parts or gaps limits assumed): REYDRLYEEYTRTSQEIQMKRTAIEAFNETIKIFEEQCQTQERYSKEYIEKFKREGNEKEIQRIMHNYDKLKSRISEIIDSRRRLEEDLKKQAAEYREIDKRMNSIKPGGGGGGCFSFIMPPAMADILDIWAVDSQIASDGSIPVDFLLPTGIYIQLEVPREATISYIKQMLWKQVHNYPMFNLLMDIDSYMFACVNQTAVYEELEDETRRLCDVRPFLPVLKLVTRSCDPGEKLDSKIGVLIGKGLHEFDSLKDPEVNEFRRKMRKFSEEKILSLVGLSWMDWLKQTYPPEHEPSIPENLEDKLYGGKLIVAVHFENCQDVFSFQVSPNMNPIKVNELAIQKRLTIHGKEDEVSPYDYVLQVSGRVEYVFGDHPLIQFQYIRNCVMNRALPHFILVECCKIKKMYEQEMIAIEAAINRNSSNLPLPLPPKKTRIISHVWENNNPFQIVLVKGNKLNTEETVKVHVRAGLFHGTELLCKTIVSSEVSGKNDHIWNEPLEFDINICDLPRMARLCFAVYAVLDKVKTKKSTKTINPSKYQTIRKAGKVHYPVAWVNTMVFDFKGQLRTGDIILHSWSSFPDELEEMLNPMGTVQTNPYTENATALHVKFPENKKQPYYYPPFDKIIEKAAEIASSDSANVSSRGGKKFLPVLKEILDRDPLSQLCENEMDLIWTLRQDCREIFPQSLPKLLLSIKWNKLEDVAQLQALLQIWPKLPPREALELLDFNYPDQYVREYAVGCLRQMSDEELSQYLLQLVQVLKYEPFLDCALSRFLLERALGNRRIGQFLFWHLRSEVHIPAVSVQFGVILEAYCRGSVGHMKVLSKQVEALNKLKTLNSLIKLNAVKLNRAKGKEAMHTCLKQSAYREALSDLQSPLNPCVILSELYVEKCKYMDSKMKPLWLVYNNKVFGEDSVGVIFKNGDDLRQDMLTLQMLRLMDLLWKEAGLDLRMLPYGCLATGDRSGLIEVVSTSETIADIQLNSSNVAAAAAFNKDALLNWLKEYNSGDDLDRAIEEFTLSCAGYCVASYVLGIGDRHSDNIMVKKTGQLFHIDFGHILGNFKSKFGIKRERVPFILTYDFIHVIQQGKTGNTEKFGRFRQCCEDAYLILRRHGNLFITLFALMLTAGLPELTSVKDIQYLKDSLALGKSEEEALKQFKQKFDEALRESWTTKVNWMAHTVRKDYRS
T1 sequence (P42336 with tags, fused parts or gaps limits assumed): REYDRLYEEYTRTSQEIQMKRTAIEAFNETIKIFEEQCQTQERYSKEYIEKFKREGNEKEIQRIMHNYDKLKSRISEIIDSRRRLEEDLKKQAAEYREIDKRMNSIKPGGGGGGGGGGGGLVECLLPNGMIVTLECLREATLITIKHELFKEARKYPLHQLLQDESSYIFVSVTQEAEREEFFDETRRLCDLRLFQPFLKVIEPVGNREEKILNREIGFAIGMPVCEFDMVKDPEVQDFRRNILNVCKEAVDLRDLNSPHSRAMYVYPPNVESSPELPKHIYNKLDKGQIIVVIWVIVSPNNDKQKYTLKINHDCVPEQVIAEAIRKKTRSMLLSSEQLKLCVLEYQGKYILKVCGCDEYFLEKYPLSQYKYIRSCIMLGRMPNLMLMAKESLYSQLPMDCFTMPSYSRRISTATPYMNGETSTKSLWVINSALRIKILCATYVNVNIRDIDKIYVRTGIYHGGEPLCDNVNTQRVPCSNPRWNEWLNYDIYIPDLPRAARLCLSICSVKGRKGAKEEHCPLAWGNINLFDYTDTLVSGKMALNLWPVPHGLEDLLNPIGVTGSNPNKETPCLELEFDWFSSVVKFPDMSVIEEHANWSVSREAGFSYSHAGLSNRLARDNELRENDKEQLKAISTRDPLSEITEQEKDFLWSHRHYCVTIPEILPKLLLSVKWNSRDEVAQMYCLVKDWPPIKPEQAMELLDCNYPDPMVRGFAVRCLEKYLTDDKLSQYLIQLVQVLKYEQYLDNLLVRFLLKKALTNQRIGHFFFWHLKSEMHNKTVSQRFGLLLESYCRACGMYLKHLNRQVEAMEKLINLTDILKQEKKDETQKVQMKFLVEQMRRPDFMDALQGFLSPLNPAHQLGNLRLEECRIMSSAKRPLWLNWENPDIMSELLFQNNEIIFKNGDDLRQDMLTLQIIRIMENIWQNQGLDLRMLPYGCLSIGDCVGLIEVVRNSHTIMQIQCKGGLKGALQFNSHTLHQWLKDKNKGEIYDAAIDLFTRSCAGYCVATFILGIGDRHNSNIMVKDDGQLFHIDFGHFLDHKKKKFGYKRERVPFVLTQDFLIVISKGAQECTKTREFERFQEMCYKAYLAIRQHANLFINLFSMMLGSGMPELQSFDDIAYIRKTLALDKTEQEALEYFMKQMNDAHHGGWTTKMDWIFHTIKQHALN
T3 sequence (O00329 with tags, fused parts or gaps limits assumed): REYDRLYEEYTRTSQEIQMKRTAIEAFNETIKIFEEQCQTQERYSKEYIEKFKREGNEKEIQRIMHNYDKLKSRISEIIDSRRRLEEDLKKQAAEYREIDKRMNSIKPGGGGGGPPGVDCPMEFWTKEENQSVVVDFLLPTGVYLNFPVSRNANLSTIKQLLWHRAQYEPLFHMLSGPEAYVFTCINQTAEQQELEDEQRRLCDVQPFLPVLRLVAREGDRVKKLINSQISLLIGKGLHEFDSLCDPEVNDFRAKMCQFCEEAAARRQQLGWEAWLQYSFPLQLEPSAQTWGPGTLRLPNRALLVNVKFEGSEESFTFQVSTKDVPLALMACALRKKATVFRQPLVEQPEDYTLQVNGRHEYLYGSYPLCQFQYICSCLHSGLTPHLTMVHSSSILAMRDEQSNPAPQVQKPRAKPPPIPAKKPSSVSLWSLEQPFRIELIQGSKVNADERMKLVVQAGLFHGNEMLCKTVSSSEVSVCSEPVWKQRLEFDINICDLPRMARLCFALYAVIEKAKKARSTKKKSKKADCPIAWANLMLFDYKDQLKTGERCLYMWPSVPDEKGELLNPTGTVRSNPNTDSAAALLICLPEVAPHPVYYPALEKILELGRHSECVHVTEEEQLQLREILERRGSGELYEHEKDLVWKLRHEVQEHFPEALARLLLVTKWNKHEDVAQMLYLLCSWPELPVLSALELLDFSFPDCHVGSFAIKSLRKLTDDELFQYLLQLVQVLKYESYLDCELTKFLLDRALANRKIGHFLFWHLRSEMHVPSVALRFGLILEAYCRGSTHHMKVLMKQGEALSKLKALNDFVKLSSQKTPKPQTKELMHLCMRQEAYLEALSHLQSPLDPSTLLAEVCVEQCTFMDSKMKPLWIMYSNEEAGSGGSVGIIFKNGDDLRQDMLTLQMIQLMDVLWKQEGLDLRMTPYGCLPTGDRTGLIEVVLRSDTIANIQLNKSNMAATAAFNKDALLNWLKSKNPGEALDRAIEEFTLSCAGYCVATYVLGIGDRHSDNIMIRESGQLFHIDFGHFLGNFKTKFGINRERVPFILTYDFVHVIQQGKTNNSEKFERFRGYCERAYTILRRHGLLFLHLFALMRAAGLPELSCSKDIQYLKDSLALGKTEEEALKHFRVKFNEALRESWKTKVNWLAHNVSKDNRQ

Structure (SMILES): CCn1nccc1-n1c(=O)n(C)c2cnc3ccc(-c4ccc(OC)c(OC)c4)cc3c21 [Example 1.2, 8-(3,4-Dimethoxy-phenyl)-1-(2-ethyl-2H-pyrazol-3-yl)-3-methyl-1,3-dihydro-imidazo[4,5-c]quinolin-2-one]
- IC50 [1]: 66 nM
- IC50 (PI3K alpha): 50 nM
- IC50 (mTOR): 155 nM
- IC50 (PI3K delta): 61 nM
- IC50 (PI3K gamma): 216 nM
- IC50 [2]: 21 nM
- IC50 (PI3K beta): 280 nM
- IC50 [3]: 33 nM

Structure (SMILES): CCOc1ccc(-c2ccc3ncc4c(c3c2)n(-c2cc(C(F)(F)F)nn2C)c(=O)n4C)cn1 [Example 3.2, 8-(6-Ethoxy-pyridin-3-yl)-3-methyl-1-(2-methyl-5-trifluoromethyl-2H-pyrazol-3-yl)-1,3-dihydro-imidazo[4,5-c]quinolin-2-one]
- IC50 [1]: 473 nM
- IC50 (PI3K alpha): 78 nM
- IC50 (PI3K delta): 394 nM
- IC50 (PI3K gamma): 559 nM
- IC50 [2]: 138 nM
- IC50 [3]: 120 nM

Structure (SMILES): CCOc1ccc(-c2ccc3ncc4c(c3c2)n(-c2c(C)nn(CCOC)c2C)c(=O)n4C)cn1 [Example 3.11, 8-(6-Ethoxy-pyridin-3-yl)-1-[1-(2-methoxy-ethyl)-3,5-dimethyl-1H-pyrazol-4-yl]-3-methyl-1,3-dihydro-imidazo[4,5-c]quinolin-2-one]
- IC50 [1]: 772 nM
- IC50 (PI3K alpha): 207 nM
- IC50 (PI3K delta): 228 nM
- IC50 [2]: 510 nM
- IC50 (PI3K beta): 473 nM
- solubility (Solubility at pH 6.8): > 473 µg/mL
- IC50 [3]: 237 nM

Structure (SMILES): Cc1nn(C)cc1-n1c(=O)n(C)c2cnc3ccc(-c4ccc(OCCOCc5ccccc5)nc4)cc3c21 [Example 19, 8-[6-(2-Benzyloxy-ethoxy)-pyridin-3-yl]-1-(1,3-dimethyl-1H-pyrazol-4-yl)-3-methyl-1,3-dihydro-imidazo[4,5-c]quinolin-2-one]
- IC50 (PI3K alpha): 482 nM
- IC50 (PI3K delta): 468 nM
- IC50 (PI3K gamma): 971 nM

Structure (SMILES): Cc1nn(C)cc1-n1c(=O)n(C)c2cnc3ccc(-c4cncc(N)c4)cc3c21 [Example 45]
- IC50 (PI3K gamma): 283 nM

Structure (SMILES): CCOc1cc(-c2ccc3ncc4c(c3c2)n(-c2c(C)nn(CCOC)c2C)c(=O)n4C)cnc1C [Example 85.2, 8-(5-Ethoxy-6-methyl-pyridin-3-yl)-1-[1-(2-methoxy-ethyl)-3,5-dimethyl-1H-pyrazol-4-yl]-3-methyl-1,3-dihydro-imidazo[4,5-c]quinolin-2-one]
- IC50 [1]: 224 nM
- IC50 (PI3K alpha): 46 nM
- IC50 (PI3K delta): 57 nM
- IC50 [2]: 516 nM
- IC50 (PI3K beta): 139 nM
- solubility (Solubility at pH 6.8): > 487 µg/mL
- IC50 [3]: 187 nM

Structure (SMILES): COc1ccc(-c2ccc3ncc4c(c3c2)n(-c2cn(CC(=O)O)nc2C)c(=O)n4C)cn1 [Example 101, {4-[8-(6-Methoxy-pyridin-3-yl)-3-methyl-2-oxo-2,3-dihydro-imidazo[4,5-c]quinolin-1-yl]-3-methyl-pyrazol-1-yl}-acetic acid]
- IC50 (PI3K alpha): 5 nM
- IC50 (mTOR): < 3 nM
- IC50 (PI3K delta): 15 nM
- IC50 (PI3K gamma): 138 nM
- IC50 (PI3K beta): 23 nM

Structure (SMILES): COc1ncc(-c2ccc3ncc4c(c3c2)n(-c2cn(C)nc2C)c(=O)n4C)cc1C(=O)O [Example 124, 5-[1-(1,3-Dimethyl-1H-pyrazol-4-yl)-3-methyl-2-oxo-2,3-dihydro-1H-imidazo[4,5-c]quinolin-8-yl]-2-methoxy-nicotinic acid]
- IC50 (PI3K alpha): 37 nM
- IC50 (mTOR): 53 nM
- IC50 (PI3K delta): 20 nM
- IC50 (PI3K gamma): 118 nM
- IC50 (PI3K beta): 83 nM

Structure (SMILES): CCn1cc(-n2c(=O)n(C)c3cnc4ccc(-c5cnc(COC)c(NC)c5)cc4c32)c(C)n1 [Example 160.2, 1-(1-Ethyl-3-Methyl-1H-pyrazol-4-yl)-8-(6-methoxymethyl-5-methylamino-pyridin-3-yl)-3-methyl-1,3-dihydro-imidazol[4,5-c]quinolin-2-one]
- IC50 (PI3K alpha): 39 nM
- IC50 (mTOR): 25 nM
- IC50 (PI3K delta): 16 nM
- IC50 (PI3K beta): 130 nM
- solubility (Solubility at pH 6.8): 237 µg/mL (≈ 518 µM)

Structure (SMILES): COCCn1nc(C)c(-n2c(=O)n(C)c3cnc4ccc(-c5cncc(NC(C)C)c5)cc4c32)c1C [Example 177.2, 8-(5-Isopropylamino-pyridin-3-yl)-1-[1-(2-methoxy-ethyl)-3,5-dimethyl-1H-pyrazol-4-yl]-3-methyl-1,3-dihydro-imidazo[4,5-c]quinolin-2-one]
- IC50 [1]: 559 nM
- IC50 (PI3K alpha): 70 nM
- IC50 (PI3K delta): 70 nM
- IC50 [2]: 494 nM
- IC50 (PI3K beta): 327 nM
- solubility (Solubility at pH 6.8): 479 µg/mL (≈ 986 µM)
- IC50 [3]: 124 nM

Structure (SMILES): Cc1nn(C)cc1-n1c(=O)n(C)c2cnc3ccc(-c4cncc(CN)c4)cc3c21 [Example 230, 8-(5-Aminomethyl-pyridin-3-yl)-1-(1,3-dimethyl-1H-pyrazol-4-yl)-3-methyl-1,3-dihydro-imidazo[4,5-c]quinolin-2-one]
- IC50 (PI3K alpha): 100 nM
- IC50 (mTOR): 465 nM
- IC50 (PI3K delta): 437 nM
- IC50 (PI3K beta): 344 nM
- solubility (Solubility at pH 6.8): > 399 µg/mL

Structure (SMILES): Cc1nn(C)cc1-n1c(=O)n(C)c2cnc3ccc(-c4cncc(CNS(C)(=O)=O)c4)cc3c21 [Example 232]
- IC50 (PI3K alpha): 44 nM
- IC50 (mTOR): 56 nM
- IC50 (PI3K delta): 60 nM
- IC50 (PI3K beta): 101 nM
- solubility (Solubility at pH 6.8): 83 µg/mL (≈ 174 µM)
